pIC50: −log10 of the molar value.
Molecular target: Human immunodeficiency virus type 1 integrase (Human immunodeficiency virus 1, UniProt Q7ZJM1)
Assay: Inhibition of HIV1 integrase strand transfer activity after 1 hr

Human immunodeficiency virus type 1 integrase, sequence (Q7ZJM1 whole entry): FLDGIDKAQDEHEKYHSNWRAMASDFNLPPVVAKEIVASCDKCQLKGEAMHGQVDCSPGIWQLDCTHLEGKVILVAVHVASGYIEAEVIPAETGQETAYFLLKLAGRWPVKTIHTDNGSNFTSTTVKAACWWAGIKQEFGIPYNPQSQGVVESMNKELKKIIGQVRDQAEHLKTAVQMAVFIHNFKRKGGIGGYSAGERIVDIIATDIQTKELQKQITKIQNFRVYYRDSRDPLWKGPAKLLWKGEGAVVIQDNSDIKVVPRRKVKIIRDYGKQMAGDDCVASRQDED

| pIC50 | SMILES |
| --- | --- |
| 6.11 | O=C(O)C(=O)CC(=O)c1cc(OCc2ccccc2)cc(OCc2ccccc2)c1 |
| 4.89 | O=C(NCCCN1CCN(C(=O)/C=C/c2ccccc2)CC1)c1cc(O)c(O)c(O)c1 |
| < 4.00 | O=C(NCCCN1CCN(C(=O)/C=C/c2ccccc2)CC1)c1ccc(O)c(O)c1 |
| < 4.00 | O=C(NCCCN1CCN(C(=O)/C=C/c2ccccc2Cl)CC1)c1ccc(O)c(O)c1 |
| 4.81 | O=C(NCCCN1CCN(C(=O)/C=C/c2cccc(O)c2)CC1)c1cc(O)c(O)c(O)c1 |
| < 4.00 | O=C(NCCCN1CCN(C(=O)/C=C/c2cccc(O)c2)CC1)c1ccc(O)c(O)c1 |
| 4.76 | Cc1ccc(/C=C/C(=O)N2CCN(CCCNC(=O)c3cc(O)c(O)c(O)c3)CC2)cc1 |
| 4.72 | O=C(NCCCN1CCN(C(=O)/C=C/c2ccccc2Cl)CC1)c1cc(O)c(O)c(O)c1 |
| 4.50 | O=C(NCCCN1CCN(C(=O)/C=C/c2ccccc2[N+](=O)[O-])CC1)c1cc(O)c(O)c(O)c1 |
| < 4.00 | Cc1ccc(/C=C/C(=O)N2CCN(CCCNC(=O)c3ccc(O)c(O)c3)CC2)cc1 |
| 4.60 | O=C(NCCCN1CCN(C(=O)/C=C/c2ccc(Cl)cc2)CC1)c1cc(O)c(O)c(O)c1 |
| < 4.00 | O=C(NCCCN1CCN(C(=O)/C=C/c2ccc(Cl)cc2)CC1)c1ccc(O)c(O)c1 |

Source: ChEMBL document CHEMBL1221354, “Synthesis of polyhydroxylated aromatics having amidation of piperazine nitrogen as HIV-1 integrase inhibitor” (Bioorg Med Chem Lett, 2010)
